US11597729B2, “Tropomyosin receptor kinase inhibitor, preparation method therefor and use thereof” (JIANGSU VCARE PHARMATECH CO., LTD., priority 2018, dated 2023)

Tests used:
TrkA = TrkA (Homo sapiens, UniProt P04629); assay: Inhibitory activity test for Trk kinases (γ-33P-ATP isotope test), TrkA; assay type: biochemical; settings: 33P-ATP 10 μM, 2 h reaction; read-out: Kinase IC50 TrkA
Procedure: (§1) Inhibitory Activity Test for Trk Kinases
(§2) In this experiment, the γ-^33P-ATP isotope test was used to test the inhibition effect of a compound on kinases TrkA, TrkB and TrkC, and the half maximal inhibitory concentration IC50 of the inhibitory activity of the compound on the enzymes was obtained.
(§3) A compound was dissolved in 100% DMSO to a particular concentration, and then the resulting solution was gradient-diluted by an automatic loading device to different concentrations of the test samples (DMSO dissolving solutions).
(§4) 3.1. The reaction substrate was diluted using the base reaction buffer;
(§5) 3.2. The kinase was added into the substrate solution and mixed gently and uniformly;
(§6) 3.3. The compounds of different concentrations diluted in 100% DMSO were added into the kinase solution using an automatic loading system, and incubated for 20 min at room temperature;
(§7) 3.4. ^33P-ATP (10 μM, 10 μCi/μl) was added at room temperature to initiate the kinase reaction, and the reaction was carried out for 2 h.
(§8) The reaction solution was subjected to an ion exchange filtration system to remove unreacted ATP and the generated ADP ions during the reaction. Then, the radiometric quantity of ^33P isotope in the substrate was detected.
(§9) The kinase activity in the system with the addition of the inhibitors of different concentrations was calculated from the radiometric quantity, to obtain the inhibitory effect of the compounds with different concentrations on the kinase activity. Fitting was performed using graphpad prism to obtain IC50 values of the compounds for inhibition.

TrkB = TrkB (Homo sapiens, UniProt Q16620); assay: Inhibitory activity test for Trk kinases (γ-33P-ATP isotope test), TrkB; assay type: biochemical; settings: 33P-ATP 10 μM, 2 h reaction; read-out: Kinase IC50 TrkB
Sequence of TrkB (Q16620 32-822, species assumed): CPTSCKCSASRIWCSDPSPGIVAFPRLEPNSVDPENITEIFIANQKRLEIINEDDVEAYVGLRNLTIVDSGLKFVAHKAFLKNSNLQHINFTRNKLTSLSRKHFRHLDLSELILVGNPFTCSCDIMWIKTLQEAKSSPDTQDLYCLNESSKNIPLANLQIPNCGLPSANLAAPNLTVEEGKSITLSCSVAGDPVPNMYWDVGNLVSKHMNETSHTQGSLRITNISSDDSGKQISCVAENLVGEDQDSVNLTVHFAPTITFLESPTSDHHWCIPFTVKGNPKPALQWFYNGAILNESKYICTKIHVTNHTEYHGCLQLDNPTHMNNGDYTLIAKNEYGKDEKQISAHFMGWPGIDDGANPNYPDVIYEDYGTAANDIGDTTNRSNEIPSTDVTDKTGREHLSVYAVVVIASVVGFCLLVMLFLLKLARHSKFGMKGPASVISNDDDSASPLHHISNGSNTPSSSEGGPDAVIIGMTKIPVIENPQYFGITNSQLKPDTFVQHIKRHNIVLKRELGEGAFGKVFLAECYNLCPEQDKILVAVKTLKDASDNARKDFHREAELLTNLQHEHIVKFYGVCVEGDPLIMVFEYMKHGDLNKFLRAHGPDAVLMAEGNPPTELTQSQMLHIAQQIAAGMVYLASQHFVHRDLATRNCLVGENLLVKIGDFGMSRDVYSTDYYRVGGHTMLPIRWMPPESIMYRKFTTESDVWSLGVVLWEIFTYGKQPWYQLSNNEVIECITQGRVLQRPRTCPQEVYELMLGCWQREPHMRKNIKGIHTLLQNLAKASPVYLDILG
Procedure: as §1, §2, §3, §4, §5, §6, §7, §8, §9

TrkC = TrkC (Homo sapiens, UniProt Q16288); assay: Inhibitory activity test for Trk kinases (γ-33P-ATP isotope test), TrkC; assay type: biochemical; settings: 33P-ATP 10 μM, 2 h reaction; read-out: Kinase IC50 TrkC
Sequence of TrkC (Q16288 32-839, species assumed): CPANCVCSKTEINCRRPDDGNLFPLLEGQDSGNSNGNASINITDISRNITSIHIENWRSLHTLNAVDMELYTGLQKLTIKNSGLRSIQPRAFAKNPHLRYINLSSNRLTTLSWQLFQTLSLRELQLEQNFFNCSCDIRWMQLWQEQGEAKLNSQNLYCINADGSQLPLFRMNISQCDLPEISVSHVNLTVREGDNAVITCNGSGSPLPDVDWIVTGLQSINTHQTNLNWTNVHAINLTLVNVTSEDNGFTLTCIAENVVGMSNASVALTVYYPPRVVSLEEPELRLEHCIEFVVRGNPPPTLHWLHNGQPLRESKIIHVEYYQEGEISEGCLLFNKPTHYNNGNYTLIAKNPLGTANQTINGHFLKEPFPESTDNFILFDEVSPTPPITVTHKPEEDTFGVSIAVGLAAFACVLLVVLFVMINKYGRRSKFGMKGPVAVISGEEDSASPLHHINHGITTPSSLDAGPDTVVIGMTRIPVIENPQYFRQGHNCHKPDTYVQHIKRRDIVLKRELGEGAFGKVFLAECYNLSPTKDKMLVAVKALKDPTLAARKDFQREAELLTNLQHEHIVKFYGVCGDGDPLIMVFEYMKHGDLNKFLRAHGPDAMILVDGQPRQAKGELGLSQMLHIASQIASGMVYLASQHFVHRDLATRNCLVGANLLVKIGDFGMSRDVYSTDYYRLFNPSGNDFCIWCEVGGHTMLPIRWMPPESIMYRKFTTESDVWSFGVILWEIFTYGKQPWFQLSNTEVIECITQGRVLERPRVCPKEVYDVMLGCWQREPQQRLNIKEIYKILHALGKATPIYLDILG
Procedure: as §1, §2, §3, §4, §5, §6, §7, §8, §9

[1] = Metabolic stability in human liver microsomes; assay type: in vitro ADME; settings: for Remaining % (60 min) / microsomal CLint at 1 μmol/L: human liver microsomes 0.5 mg/mL, compound 1 μmol/L; for Remaining % (60 min): 37° C.; for Negative control Remaining % (60 min): human liver microsomes, negative control incubation; for half-life at 1 μmol/L: human, liver microsomes; for half-life at 1 μmol/L / microsomal CLint at 1 μmol/L: pH 7.4; for microsomal CLint at 1 μmol/L: read-out: Clint (μL/min/mg protein)
Procedure: Testing on Metabolic Stability of Compounds in Human Liver Microsomes
The total volume of an incubation system was 250 μL, and 50 mmol/L PBS buffer (pH=7.4) was used to prepare incubation solutions of liver microsomes from various species with a protein concentration of 0.5 mg/mL. Before the start of the incubation, 2.5 μL of a 100 μmol/L compound to be tested was mixed with 197.5 μL of the above incubation solution, pre-incubated in a 37° C. water bath for 5 min, and then added with a 50 μL reducing coenzyme II solution (5 mmol/L) that was likewise pre-incubated for 5 min to start the reaction (in the reaction system, the protein content of liver microsomes from various species was 0.5 g/L, and the final concentration of the compound to be tested was 1 μmol/L), incubated in a 37° C. water bath with shaking, and taken out at 0, 5, 15, 30, and 60 min. 600 μL of a methanol solution of mixed positive and negative internal standards with internal standards Terfenadine (positive ion internal standard, 25 ng/mL) and Tolbutamide (negative ion internal standard, 50 ng/mL) was immediately added to terminate the reaction. The incubation solution after termination was shaken for 2 min and centrifuged (4° C., 16000 r/min) for 10 min, and the supernatant was taken for LC-MS/MS detection to quantitatively analyze the remaining amount of the parent drug. (DMSO<0.1%).
The concentration of the compound at 0 min incubation was regarded as 100%, and the concentrations at other incubation time points were converted into the remaining percentages. The natural logarithm of the remaining percentage at each time point was linearly regressed against the incubation time, and the slope k was calculated. According to the formula T1/2=−0.693/k, the in vitro half-life was calculated. Clearance in liver microsomes (CLint (μL/min/mg protein)=Ln (2)*1000/T1/2 (min)/Protein Conc(mg/ml)).
Test data of metabolic stability of the compounds of the present invention in human liver microsomes are listed in detail in table 3: […]

BaF3-tel-NTRK1 = assay: Growth inhibition test, CellTiter-Glo, tel-NTRK1-BaF3 cells; assay type: cell-based; settings: 72 hours incubation, read-out: Cell GI50 BaF3-tel-NTRK1
Procedure: (§10) Growth Inhibition Test for Tel-NTRK1-BaF3 and BaF3-LMNA-NTRK1 Cells
(§11) In this experiment, the CellTiter-Glo cell proliferation fluorescence assay was used to test the growth inhibitory effect of a compound on tel-NTRK1-BaF3 and BaF3-LMNA-NTRK1 transgenic cells, and the half maximal growth inhibitory concentration GI50 of the compound on the cells was obtained.
(§12) A compound to be tested was dissolved in DMSO to formulate 10 mM of a mother solution. The mother solution was 3× diluted to 10 mM, 3.333 mM, 1.111 mM, 0.370 mM, 0.123 mM, 0.041 mM, 0.014 mM, 0.005 mM, and 0.002 mM. The prepared solutions were each stored in a 0.5 ml sterilized dorft tube (Corning, USA). In addition, an equal volume of DMSO solvent was used as a blank control. With 10 concentration gradients, the plate was stored in vacuum at −20° C.
The tel-NTRK1-BaF3 and BaF3-LMNA-NTRK1 cell lines were cultured with RPMI 1640 (Corning, N.Y., USA)+10% fetal bovine serum (Gibico, Invitrogen, USA). After the cells were thawed, they were cultured for two generations to be tested.
(§13) Logarithmic growth phase cells (2000-2500 cells/well) were inoculated in a 12×8 96-well white opaque cell culture plate (Corning 3570, NY, USA) in a volume of 100 μL per well, and a drug was added to the cell plate (0.1 μL/well) at the final concentration of the compound of 10 μM, 3.3 μM, 1.1 μM, 0.37 μM, 0.12 IM, 0.04 μM, 0.014 IM, 0.005 μM, and 0.002 μM (0.4 uL of the drug solution was added to 400 ul of the cell homogenate, and then mixed uniformly, and the resulting mixture was added at 100 ul per well). The plate was incubated at 37° C. in a 5% CO2 incubator for 72 hours, and then 20 μL CellTiter-Glo cell proliferation fluorescence assay reagent was added. The plate was allowed to stand for 10 min, and read in the Envision Plate-Reader. […]
A corresponding […] value RLU of each well was obtained by reading in the Envision Plate-reader. […]
The biochemical activity of the compounds of the present invention was determined by the above experiment, and the measured GI50 values are shown in table 2: […]

BaF3-LMNA-NTRK1 = assay: Growth inhibition test, CellTiter-Glo, BaF3-LMNA-NTRK1 cells; assay type: cell-based; settings: 72 hours incubation, read-out: Cell GI50 BaF3-LMNA-NTRK1
Procedure: as §10, §11
as §12, with “In addition, an equal volume of DMSO solvent was used as a blank control. With 10 concentration gradients, the plate was stored in vacuum at −20° C.” left out
as §13, with “added.” for “added. The plate was allowed to stand for 10 min, and read in the Envision Plate-Reader.”

Sequence of TrkA (P04629 33-796, species assumed): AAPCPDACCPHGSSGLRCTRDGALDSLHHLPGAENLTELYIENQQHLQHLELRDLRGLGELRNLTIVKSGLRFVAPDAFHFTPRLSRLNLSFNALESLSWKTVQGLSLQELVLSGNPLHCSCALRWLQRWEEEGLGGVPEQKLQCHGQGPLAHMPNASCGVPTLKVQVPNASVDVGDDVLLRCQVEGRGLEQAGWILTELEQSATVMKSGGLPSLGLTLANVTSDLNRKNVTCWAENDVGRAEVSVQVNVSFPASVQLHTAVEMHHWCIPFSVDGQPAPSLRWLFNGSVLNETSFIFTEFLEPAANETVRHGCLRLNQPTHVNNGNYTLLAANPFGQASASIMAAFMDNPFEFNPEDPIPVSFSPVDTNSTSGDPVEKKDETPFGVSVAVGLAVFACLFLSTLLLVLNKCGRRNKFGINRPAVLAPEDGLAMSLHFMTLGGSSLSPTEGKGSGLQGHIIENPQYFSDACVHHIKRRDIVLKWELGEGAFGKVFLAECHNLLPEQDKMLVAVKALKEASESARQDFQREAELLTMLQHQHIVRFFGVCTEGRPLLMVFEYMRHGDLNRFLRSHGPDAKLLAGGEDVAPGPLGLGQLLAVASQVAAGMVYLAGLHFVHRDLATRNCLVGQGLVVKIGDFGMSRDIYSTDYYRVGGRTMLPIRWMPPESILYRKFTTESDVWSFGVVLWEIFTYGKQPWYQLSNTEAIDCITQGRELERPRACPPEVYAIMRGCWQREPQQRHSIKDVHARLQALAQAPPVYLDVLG

| SMILES | IC50 (TrkA) [nM] | Remaining % (60 min) [1] [%] | Negative control Remaining % (60 min) [1] [%] | half-life at 1 μmol/L [1] [min] | microsomal CLint at 1 μmol/L [1] [µL/min/mg] | GI50 (BaF3-tel-NTRK1) [nM] | GI50 (BaF3-LMNA-NTRK1) [nM] | IC50 (TrkB) [nM] | IC50 (TrkC) [nM] |
| --- | --- | --- | --- | --- | --- | --- | --- | --- | --- |
| C[C@@H]1CCc2ncc(F)cc2[C@H]2CCCN2c2ccn3ncc(c3n2)C(=O)N1 [LOXO-195, reference compound] | – | 6.70 | 102 | 15.3 | 90.6 | – | – | – | – |
| CC(C)CN1CCc2ncc(F)cc2[C@H]2CCCN2c2ccn3ncc(c3n2)C(=O)N1 [Example 9, (R,1^3E,1^4E)-3^5-fluoro-6-isobutyl-6,7-diazepine-1(5,3)-pyrazolo[1,5-a]pyrimidine-3(3,2)-pyridine-2(1,2)-pyrrolidine cyclooctane-8-one] | 2.36 | – | – | – | – | – | – | 2.16 | 0.32 |
| CC1Cc2ncc(F)cc2[C@H]2CCCN2c2ccn3ncc(c3n2)C(=O)NN1C (single isomer, unassigned) [Example 7a, (1^3E,1^4E,2^2R,5R or S)-3^5-fluoro-5,6-dimethyl-6,7-diazepine-1(5,3)-pyrazolo[1,5-a]pyrimidine-3(3,2)-pyridine-2(1,2)-pyrrolidine cyclooctane-8-one] | 3.2 | – | – | – | – | – | – | 4.04 | 0.58 |
| CCN1NC(=O)c2cnn3ccc(nc23)N2CCC[C@@H]2c2cc(F)cnc2CC1C (single isomer, unassigned) [Example 8a, (1^3E,1^4E,2^2R,5R or S)-3^5-fluoro-6-ethyl-5-methyl-6,7-diazepine-1(5,3)-pyrazolo[1,5-a]pyrimidine-3(3,2)-pyridine-2(1,2)-pyrrolidine cyclooctane-8-one] | 4.01 | – | – | – | – | – | – | 6.19 | 0.76 |
| CCN1NC(=O)c2cnn3ccc(nc23)N2CCC[C@@H]2c2cc(F)cnc2CC1C (single isomer, unassigned) [Example 8b, (1^3E,1^4E,2^2R,5R or S)-3^5-fluoro-6-ethyl-5-methyl-6,7-diazepine-1(5,3)-pyrazolo[1,5-a]pyrimidine-3(3,2)-pyridine-2(1,2)-pyrrolidine cyclooctane-8-one] | 1.85 | – | – | – | – | – | – | 1.35 | 0.34 |
| CC1Cc2ncc(F)cc2[C@H]2CCCN2c2ccn3ncc(c3n2)C(=O)NN1C (single isomer, unassigned) [Example 7b, (1^3E,1^4E,2^2R,5R or S)-3^5-fluoro-5,6-dimethyl-6,7-diazepine-1(5,3)-pyrazolo[1,5-a]pyrimidine-3(3,2)-pyridine-2(1,2)-pyrrolidine cyclooctane-8-one] | 2.62 | – | – | – | – | – | – | 0.71 | 0.19 |

Now from value to compound, other results behind:

| IC50 (TrkA) [nM] | Remaining % (60 min) [1] [%] | Negative control Remaining % (60 min) [1] [%] | half-life at 1 μmol/L [1] [min] | microsomal CLint at 1 μmol/L [1] [µL/min/mg] | GI50 (BaF3-tel-NTRK1) [nM] | GI50 (BaF3-LMNA-NTRK1) [nM] | SMILES | IC50 (TrkB) [nM] | IC50 (TrkC) [nM] |
| --- | --- | --- | --- | --- | --- | --- | --- | --- | --- |
| 2.16 | – | – | – | – | – | – | CC1Cc2ncc(F)cc2[C@H]2CCCN2c2ccn3ncc(c3n2)C(=O)NN1C1CC1 (single isomer, unassigned) [Example 3b, (1^3E,1^4E,2^2R,5R or S)-6-cyclopropyl-3^5-fluoro-5-methyl-6,7-diazepine-1(5,3)-pyrazolo(1,5-a]pyrimidine-3(3,2)-pyridine-2(1,2)-pyrrolidine cyclooctane-8-one] | 1.13 | 0.38 |
| – | 47.78 | 95.9 | 59.2 | 23.4 | 24.6 | 35.7 | O=C(Nc1cnn2ccc(N3CCC[C@@H]3c3cc(F)ccc3F)nc12)N1CC[C@H](O)C1 [LOXO-101, reference compound] | – | – |
| 3.81 | – | – | – | – | 18 | – | CC1Cc2ncc(F)cc2[C@H]2CCCN2c2ccn3ncc(c3n2)C(=O)NN1C1CC1 (stereo partly drawn) [Example 2, (1^3E,1^4E,2^2R)-6-cyclopropylamino-3^5-fluoro-5-methyl-6,7-diazepine-1(5,3)-pyrazolo[1,5-a]pyrimidine-3(3,2)-azabenzene-2(1,2)-pyrrolidine cyclooctane-8-one] | – | – |
| 7.92 | – | – | – | – | – | – | CCN1CCc2ncc(F)cc2[C@H]2CCCN2c2ccn3ncc(c3n2)C(=O)N1 [Example 5, (R,1^3E,1^4E)-6-ethyl-3^3-fluoro-6,7-diazepine-1(5,3)-pyrazolo[1,5-a]pyrimidine-3(3,2)-azabenzene-2(1,2)-pyrrolidine cyclooctane-8-one] | – | – |
| 2.09 | – | – | – | – | – | – | CC(C)N1CCc2ncc(F)cc2[C@H]2CCCN2c2ccn3ncc(c3n2)C(=O)N1 [Example 6, (R,1^3E,1^4E)-3^5-fluoro-6-isopropyl-6,7-diazepine-1(5,3)-pyrazolo[1,5-a]pyrimidine-3(3,2)-pyridine-2(1,2)-pyrrolidine cyclooctane-8-one] | 0.83 | 0.29 |
| 2.27 | – | – | – | – | – | – | CC1Cc2ncc(F)cc2[C@H]2CCCN2c2ccn3ncc(c3n2)C(=O)NN1C1CC1 (single isomer, unassigned) [Example 3a, (1^3E,1^4E,2^2R,5R or S)-6-cyclopropyl-3^3-fluoro-5-methyl-6,7-diazepine-1(5,3)-pyrazolo(1,5-a]pyrimidine-3(3,2)-pyridine-2(1,2)-pyrrolidine cyclooctane-8-one] | 1.58 | 0.46 |
| 12.6 | 88.39 | 108.0 | 217 | 6.4 | – | – | CN1CCc2ncc(F)cc2[C@H]2CCCN2c2ccn3ncc(c3n2)C(=O)N1 [Example 4, (R,1^3E,1^4E)-3^5-fluoro-6-methyl-6,7-diazepine-1(5,3)-pyrazolo[1,5-a]pyrimidine-3(3,2)-azabenzene-2(1,2)-pyrrolidine cyclooctane-8-one] | – | – |
